Converted amounts (≈) assume the structure as drawn.

In general, IC50 refers to the concentration that inhibits the measured activity by half. The low end stands for inhibition by little substance, the high end for a need for much substance. As usually defined, the MIC is the least concentration at which growth counts as inhibited.

The subject of data set [1] is cultured cells (HaCaT keratinocytes, primary dermal fibroblasts, ASCs). The experiment in a line: In vitro cytotoxicity model overall (cell type not given). The class given is cell-based, human. As for the experimental part: All of the samples were prepared on the day of the assays. Each product/stock solution was diluted with CfM or CAM until the desired concentration ranges were obtained for the in vitro cytotoxicity assessments, based on OECD recommendations (i.e., with serial dilutions). The tested CLX- and HOCl-based biocides were used as received, apart from dilution with cell culture medium. To perform the cytotoxicity assays, WCB II vials of primary cells and vials of control cell lines (i.e., HaCaT keratinocytes) were thawed and were expanded to confluency. The cells were then harvested and seeded in 24-well plates at densities of 3 × 10^3 and 6 × 10^3 cells/well. The cultures were maintained for 7 days as described previously. The test items were then dispensed in the wells of the culture plates, following dilution in CfM or CAM. The Vashe® source was tested for cytotoxicity at final HOCl concentrations of 786-6290 μM. The Brio® source was tested for cytotoxicity at final HOCl concentrations of 596-4766 μM. The CLX source was tested for cytotoxicity at final concentrations of 0.2-1978 μM. […] The retained test item experimental concentrations were selected based on the OECD […] guideline and on high-throughput screening principles. After 48 h of cell treatment with the test items, the solutions were removed and a 10% solution of CellTiter® (Promega, Madison, WI, USA) in CfM or CAM was added in every well for assessment of cellular viability. The plates were then placed in the incubator for 90 min. The solutions were transferred to a 96-well plate and were analyzed on a Varioskan LUX 3020 spectrophotometer (ThermoFisher Scientific, Waltham, MA, USA) at 490 nm with agitation. Following the cytotoxicity model validation in 24-well plates, the same procedure was used for optimization and upscaling in 96-well plates. The culture plates were seeded with 5 × 10^3 cells/well (i.e., for primary cells) and 10^4 cells/well (i.e., for HaCaT keratinocytes) in a CfM volume of 100 μL per well. […]

In the next data set the test system is HaCaT keratinocytes. Description: In vitro cytotoxicity assay (CellTiter viability) in HaCaT keratinocytes. The conditions noted are these: 48 h treatment. It is filed as cell-based, human. How it is done: (§1) All of the samples were prepared on the day of the assays. Each product/stock solution was diluted with CfM or CAM until the desired concentration ranges were obtained for the in vitro cytotoxicity assessments, based on OECD recommendations (i.e., with serial dilutions). The tested CLX- and HOCl-based biocides were used as received, apart from dilution with cell culture medium.
(§2) To perform the cytotoxicity assays, WCB II vials of primary cells and vials of control cell lines (i.e., HaCaT keratinocytes) were thawed and were expanded to confluency. The cells were then harvested and seeded in 24-well plates at densities of 3 × 10^3 and 6 × 10^3 cells/well. The cultures were maintained for 7 days as described previously. The test items were then dispensed in the wells of the culture plates, following dilution in CfM or CAM. […] Regarding the AR-12 antifungal compound, cytotoxicity was assessed for a concentration range of 0.27–139 µM. […]
(§3) After 48 h of cell treatment with the test items, the solutions were removed and a 10% solution of CellTiter® (Promega, Madison, WI, USA) in CfM or CAM was added in every well for assessment of cellular viability. […] The solutions were transferred to a 96-well plate and were analyzed on a Varioskan LUX 3020 spectrophotometer (ThermoFisher Scientific, Waltham, MA, USA) at 490 nm with agitation. […]

Data set [2] relates to primary dermal fibroblasts. The experiment in a line: In vitro cytotoxicity assay (CellTiter viability) in polydactyly-derived primary dermal fibroblasts. The class given is cell-based, human. As for the experimental part: All of the samples were prepared on the day of the assays. Each product/stock solution was diluted with CfM or CAM until the desired concentration ranges were obtained for the in vitro cytotoxicity assessments, based on OECD recommendations (i.e., with serial dilutions). The tested CLX- and HOCl-based biocides were used as received, apart from dilution with cell culture medium. To perform the cytotoxicity assays, WCB II vials of primary cells and vials of control cell lines (i.e., HaCaT keratinocytes) were thawed and were expanded to confluency. The cells were then harvested and seeded in 24-well plates at densities of 3 × 10^3 and 6 × 10^3 cells/well. The cultures were maintained for 7 days as described previously. The test items were then dispensed in the wells of the culture plates, following dilution in CfM or CAM. The Vashe® source was tested for cytotoxicity at final HOCl concentrations of 786-6290 μM. The Brio® source was tested for cytotoxicity at final HOCl concentrations of 596-4766 μM. The CLX source was tested for cytotoxicity at final concentrations of 0.2-1978 μM. […] The solutions were transferred to a 96-well plate and were analyzed on a Varioskan LUX 3020 spectrophotometer (ThermoFisher Scientific, Waltham, MA, USA) at 490 nm with agitation. […]

In data set [3] the test system is adipose-derived stem cells (ASC). The experiment in a line: In vitro cytotoxicity assay (CellTiter viability) in polydactyly-derived ASCs. It is filed as cell-based, human. As for the experimental part: as §1, §2, §3
For data set [4], the system named is most medically relevant test strains of yeast. More on the design: method as in PMID 27088128, PMID 27645246. The note with it: cited from earlier work.

For `OCl` [HOCl, hypochlorous acid], the “comparative in vitro cytotoxicity” value in data set [1] (Figures 4-6) was “less toxicity than CLX”. In data set [1] (in vitro data gathered herein, 50 times lower than 100–200 ppm in-use doses), the “dose showing in vitro cytotoxicity” value worked out at 4 µg/mL.
Turning to `NCC(=O)Nc1ccc(-n2nc(C(F)(F)F)cc2-c2ccc3c(ccc4ccccc43)c2)cc1` [AR-12], the half-maximal inhibitory concentration (IC50) with HaCaT keratinocytes stood at 9.96 ± 0.35 µM; in data set [2] (48 h treatment, CellTiter viability), 10.7 ± 0.27 µM. Besides, the cytotoxicity values in data set [2] and in data set [3] was 4 to 8 µg/mL each time. For the same compound, the MIC in data set [4] is 8 µM (≈ 3.68 µg/mL).
For the compound `[H]/N=C(\N/C(=N/[H])NCCCCCCNC(=N)NC(=N)Nc1ccc(Cl)cc1)Nc1ccc(Cl)cc1` [CLX, chlorhexidine], in data set [1] (human, 48 h), the “dilution needed to avoid toxicity in cultured cells” value is 10- and 100.

The values above are taken from PMC11544888, “Sustainable Primary Cell Banking for Topical Compound Cytotoxicity Assays: Protocol Validation on Novel Biocides and Antifungals for Optimized Burn Wound Care” (European Burn Journal, 2024).
